Source: ChEMBL document CHEMBL3611969, “The effect of complexation of 3-formylrifamycin SV macrocyclic ether derivatives with metal cations and small nitrogen-containing organic molecules on antibacterial activity against S. aureus and S. epidermidis” (Bioorg Med Chem Lett, 2015)
≈ marks a conversion by molar mass, not a printed value.

Legend:
Staphylococcus aureus [1] = assay: Antibacterial activity against Staphylococcus aureus ATCC 6538 after 18 hrs by serial microdilution method; format: functional; conditions: ATCC 6538, 18 h
Staphylococcus aureus [2] = assay: Antibacterial activity against Staphylococcus aureus ATCC 4163 after 18 hrs by serial microdilution method; format: functional; conditions: ATCC 4163, 18 h
Staphylococcus aureus [3] = assay: Antibacterial activity against Staphylococcus aureus ATCC 25923 after 18 hrs by serial microdilution method; format: functional; conditions: ATCC 25923, 18 h
[4] = test system: Staphylococcus epidermidis; assay: Antibacterial activity against Staphylococcus epidermidis ATCC 12228 after 18 hrs by serial microdilution method; format: functional; conditions: ATCC 12228, 18 h
[5] = test system: Staphylococcus epidermidis; assay: Antibacterial activity against Staphylococcus epidermidis ATCC 49134 after 18 hrs by serial microdilution method; format: functional; conditions: ATCC 49134, 18 h
[6] = Solubility of the compound in water at pH 7; format: physicochemical
[7] = Octanol-water partition coefficient, log P of the compound by UV-vis method; format: physicochemical
Staphylococcus aureus [8] = assay: Antibacterial activity against Staphylococcus aureus ATCC 6538 after 18 hrs by serial microdilution method in presence of isoniazid; format: functional; conditions: ATCC 6538, 18 h
Staphylococcus aureus [9] = assay: Antibacterial activity against Staphylococcus aureus ATCC 6538 after 18 hrs by serial microdilution method in presence of 2-chlorobenzylamine; format: functional; conditions: ATCC 6538, 18 h
Staphylococcus aureus [10] = assay: Antibacterial activity against Staphylococcus aureus ATCC 6538 after 18 hrs by serial microdilution method in presence of 4-fluorobenzylamine; format: functional; conditions: ATCC 6538, 18 h
Staphylococcus aureus [11] = assay: Antibacterial activity against Staphylococcus aureus ATCC 6538 after 18 hrs by serial microdilution method in presence of histamine; format: functional; conditions: ATCC 6538, 18 h
Staphylococcus aureus [12] = assay: Antibacterial activity against Staphylococcus aureus ATCC 4163 after 18 hrs by serial microdilution method in presence of 2-chlorobenzylamine; format: functional; conditions: ATCC 4163, 18 h
Staphylococcus aureus [13] = assay: Antibacterial activity against Staphylococcus aureus ATCC 4163 after 18 hrs by serial microdilution method in presence of 4-fluorobenzylamine; format: functional; conditions: ATCC 4163, 18 h
Staphylococcus aureus [14] = assay: Antibacterial activity against Staphylococcus aureus ATCC 4163 after 18 hrs by serial microdilution method in presence of isoniazid; format: functional; conditions: ATCC 4163, 18 h
Staphylococcus aureus [15] = assay: Antibacterial activity against Staphylococcus aureus ATCC 4163 after 18 hrs by serial microdilution method in presence of histamine; format: functional; conditions: ATCC 4163, 18 h
Staphylococcus aureus [16] = assay: Antibacterial activity against Staphylococcus aureus ATCC 25923 after 18 hrs by serial microdilution method in presence of 2-chlorobenzylamine; format: functional; conditions: ATCC 25923, 18 h
Staphylococcus aureus [17] = assay: Antibacterial activity against Staphylococcus aureus ATCC 25923 after 18 hrs by serial microdilution method in presence of 4-fluorobenzylamine; format: functional; conditions: ATCC 25923, 18 h
Staphylococcus aureus [18] = assay: Antibacterial activity against Staphylococcus aureus ATCC 25923 after 18 hrs by serial microdilution method in presence of isoniazid; format: functional; conditions: ATCC 25923, 18 h
Staphylococcus aureus [19] = assay: Antibacterial activity against Staphylococcus aureus ATCC 25923 after 18 hrs by serial microdilution method in presence of histamine; format: functional; conditions: ATCC 25923, 18 h
[20] = test system: Staphylococcus epidermidis; assay: Antibacterial activity against Staphylococcus epidermidis ATCC 12228 after 18 hrs by serial microdilution method in presence of 2-chlorobenzylamine; format: functional; conditions: ATCC 12228, 18 h
[21] = test system: Staphylococcus epidermidis; assay: Antibacterial activity against Staphylococcus epidermidis ATCC 12228 after 18 hrs by serial microdilution method in presence of 4-fluorobenzylamine; format: functional; conditions: ATCC 12228, 18 h
[22] = test system: Staphylococcus epidermidis; assay: Antibacterial activity against Staphylococcus epidermidis ATCC 12228 after 18 hrs by serial microdilution method in presence of isoniazid; format: functional; conditions: ATCC 12228, 18 h
[23] = test system: Staphylococcus epidermidis; assay: Antibacterial activity against Staphylococcus epidermidis ATCC 12228 after 18 hrs by serial microdilution method in presence of histamine; format: functional; conditions: ATCC 12228, 18 h
[24] = test system: Staphylococcus epidermidis; assay: Antibacterial activity against Staphylococcus epidermidis ATCC 49134 after 18 hrs by serial microdilution method in presence of 2-chlorobenzylamine; format: functional; conditions: ATCC 49134, 18 h
[25] = test system: Staphylococcus epidermidis; assay: Antibacterial activity against Staphylococcus epidermidis ATCC 49134 after 18 hrs by serial microdilution method in presence of 4-fluorobenzylamine; format: functional; conditions: ATCC 49134, 18 h
[26] = test system: Staphylococcus epidermidis; assay: Antibacterial activity against Staphylococcus epidermidis ATCC 49134 after 18 hrs by serial microdilution method in presence of isoniazid; format: functional; conditions: ATCC 49134, 18 h
[27] = test system: Staphylococcus epidermidis; assay: Antibacterial activity against Staphylococcus epidermidis ATCC 49134 after 18 hrs by serial microdilution method in presence of histamine; format: functional; conditions: ATCC 49134, 18 h

Compound	MIC (Staphylococcus aureus [1])	MIC (Staphylococcus aureus [2])	MIC (Staphylococcus aureus [3])	MIC [4]	MIC [5]	solubility [6]	logP [7]	also measured
NCc1ccc(F)cc1	> 4 µg/mL	> 4 µg/mL	> 4 µg/mL	> 4 µg/mL	> 4 µg/mL	–	–	–
NCc1ccccc1Cl	> 4 µg/mL	> 4 µg/mL	> 4 µg/mL	> 4 µg/mL	> 4 µg/mL	–	–	–
CO[C@H]1/C=C/O[C@@]2(C)Oc3c(C)c(O)c4c(O)c(c(C=O)c(O)c4c3C2=O)NC(=O)/C(C)=C\C=C\[C@H](C)[C@H](O)[C@@H](C)[C@@H](O)[C@@H](C)[C@H](OC(C)=O)[C@@H]1C	0.5 µg/mL (≈ 0.689 µM)	0.5 µg/mL (≈ 0.689 µM)	0.5 µg/mL (≈ 0.689 µM)	0.125 µg/mL (≈ 0.172 µM)	0.125 µg/mL (≈ 0.172 µM)	–	–	–
CO[C@H]1/C=C/O[C@@]2(C)Oc3c(C)c(O)c4c(O)c(c(CNC5CCOCC5)c(O)c4c3C2=O)NC(=O)/C(C)=C\C=C\[C@H](C)[C@H](O)[C@@H](C)[C@@H](O)[C@@H](C)[C@H](OC(C)=O)[C@@H]1C	0.5 µg/mL (≈ 0.617 µM)	0.5 µg/mL (≈ 0.617 µM)	0.5 µg/mL (≈ 0.617 µM)	0.25 µg/mL (≈ 0.308 µM)	0.25 µg/mL (≈ 0.308 µM)	500 µg/mL (≈ 617 µM)	2.05	–
CO[C@H]1/C=C/O[C@@]2(C)Oc3c(C)c(O)c4c(O)c(c(CNCC5CCOCC5)c(O)c4c3C2=O)NC(=O)/C(C)=C\C=C\[C@H](C)[C@H](O)[C@@H](C)[C@@H](O)[C@@H](C)[C@H](OC(C)=O)[C@@H]1C	0.5 µg/mL (≈ 0.606 µM)	0.5 µg/mL (≈ 0.606 µM)	0.5 µg/mL (≈ 0.606 µM)	0.25 µg/mL (≈ 0.303 µM)	0.25 µg/mL (≈ 0.303 µM)	250 µg/mL (≈ 303 µM)	2.37	–
CO[C@H]1/C=C/O[C@@]2(C)Oc3c(C)c(O)c4c(O)c(c(CN5CCOCCOCCOCCOCC5)c(O)c4c3C2=O)NC(=O)/C(C)=C\C=C\[C@H](C)[C@H](O)[C@@H](C)[C@@H](O)[C@@H](C)[C@H](OC(C)=O)[C@@H]1C	4 µg/mL (≈ 4.31 µM)	4 µg/mL (≈ 4.31 µM)	> 4 µg/mL	> 4 µg/mL	> 4 µg/mL	1600 µg/mL (≈ 1720 µM)	-0.92	–
CO[C@H]1/C=C/O[C@@]2(C)Oc3c(C)c(O)c4c(O)c(c(CN5CCOCCOCCOCCOCCOCC5)c(O)c4c3C2=O)NC(=O)/C(C)=C\C=C\[C@H](C)[C@H](O)[C@@H](C)[C@@H](O)[C@@H](C)[C@H](OC(C)=O)[C@@H]1C	4 µg/mL (≈ 4.11 µM)	4 µg/mL (≈ 4.11 µM)	> 4 µg/mL	2 µg/mL (≈ 2.06 µM)	2 µg/mL (≈ 2.06 µM)	1200 µg/mL (≈ 1230 µM)	-0.54	–
CO[C@H]1/C=C/O[C@@]2(C)Oc3c(C)c(O)c4c(O)c(c(CNc5ccc6c(c5)OCCOCCOCCOCCO6)c(O)c4c3C2=O)NC(=O)/C(C)=C\C=C\[C@H](C)[C@H](O)[C@@H](C)[C@@H](O)[C@@H](C)[C@H](OC(C)=O)[C@@H]1C	2 µg/mL (≈ 2.01 µM)	2 µg/mL (≈ 2.01 µM)	2 µg/mL (≈ 2.01 µM)	0.5 µg/mL (≈ 0.503 µM)	0.5 µg/mL (≈ 0.503 µM)	–	0.2	MIC (Staphylococcus aureus [8]): 1 µg/mL; MIC (Staphylococcus aureus [9]): 0.5 µg/mL; MIC (Staphylococcus aureus [10]): 0.5 µg/mL; MIC (Staphylococcus aureus [11]): 0.125 µg/mL; MIC (Staphylococcus aureus [12]): 0.5 µg/mL; MIC (Staphylococcus aureus [13]): 0.5 µg/mL; MIC (Staphylococcus aureus [14]): 1 µg/mL; MIC (Staphylococcus aureus [15]): 0.125 µg/mL; MIC (Staphylococcus aureus [16]): 0.5 µg/mL; MIC (Staphylococcus aureus [17]): 0.5 µg/mL; MIC (Staphylococcus aureus [18]): 1 µg/mL; MIC (Staphylococcus aureus [19]): 0.125 µg/mL; MIC [20]: 0.25 µg/mL; MIC [21]: 0.25 µg/mL; MIC [22]: 0.25 µg/mL; MIC [23]: 1.25 µg/mL; MIC [24]: 0.25 µg/mL; MIC [25]: 0.25 µg/mL; MIC [26]: 0.25 µg/mL; MIC [27]: 0.125 µg/mL
CO[C@H]1/C=C/O[C@@]2(C)Oc3c(C)c(O)c4c(O)c(c(CNc5ccc6c(c5)OCCOCCOc5ccccc5OCCOCCO6)c(O)c4c3C2=O)NC(=O)/C(C)=C\C=C\[C@H](C)[C@H](O)[C@@H](C)[C@@H](O)[C@@H](C)[C@H](OC(C)=O)[C@@H]1C	1 µg/mL (≈ 0.921 µM)	2 µg/mL (≈ 1.84 µM)	2 µg/mL (≈ 1.84 µM)	0.5 µg/mL (≈ 0.461 µM)	0.5 µg/mL (≈ 0.461 µM)	< 50 µg/mL	1.12	MIC (Staphylococcus aureus [8]): 1 µg/mL; MIC (Staphylococcus aureus [9]): 0.25 µg/mL; MIC (Staphylococcus aureus [10]): 0.25 µg/mL; MIC (Staphylococcus aureus [11]): 0.125 µg/mL; MIC (Staphylococcus aureus [12]): 0.25 µg/mL; MIC (Staphylococcus aureus [13]): 0.25 µg/mL; MIC (Staphylococcus aureus [14]): 1 µg/mL; MIC (Staphylococcus aureus [15]): 0.125 µg/mL; MIC (Staphylococcus aureus [16]): 0.25 µg/mL; MIC (Staphylococcus aureus [17]): 0.25 µg/mL; MIC (Staphylococcus aureus [18]): 1 µg/mL; MIC (Staphylococcus aureus [19]): 0.125 µg/mL; MIC [20]: 0.25 µg/mL; MIC [21]: 0.25 µg/mL; MIC [22]: 0.5 µg/mL; MIC [23]: 1.25 µg/mL; MIC [24]: 0.25 µg/mL; MIC [25]: 0.25 µg/mL; MIC [26]: 0.5 µg/mL; MIC [27]: 0.125 µg/mL
[Li+].[O-][Cl+3]([O-])([O-])[O-]	> 4 µg/mL	> 4 µg/mL	> 4 µg/mL	> 4 µg/mL	> 4 µg/mL	–	–	–
NCCc1c[nH]cn1 [HISTAMINE]	> 4 µg/mL	> 4 µg/mL	> 4 µg/mL	> 4 µg/mL	> 4 µg/mL	–	–	–
NNC(=O)c1ccncc1 [ISONIAZID]	> 4 µg/mL	> 4 µg/mL	> 4 µg/mL	> 4 µg/mL	> 4 µg/mL	–	–	–
CO[C@H]1/C=C/O[C@@]2(C)Oc3c(C)c(O)c4c(O)c(c(/C=N/N5CCN(C)CC5)c(O)c4c3C2=O)NC(=O)/C(C)=C\C=C\[C@H](C)[C@H](O)[C@@H](C)[C@@H](O)[C@@H](C)[C@H](OC(C)=O)[C@@H]1C [RIFAMPIN]	0.016 µg/mL (≈ 0.0194 µM)	0.016 µg/mL (≈ 0.0194 µM)	0.016 µg/mL (≈ 0.0194 µM)	0.008 µg/mL (≈ 0.00972 µM)	0.008 µg/mL (≈ 0.00972 µM)	–	–	–
[Na+].[O-][Cl+3]([O-])([O-])[O-] [SODIUM PERCHLORATE]	> 4 µg/mL	> 4 µg/mL	> 4 µg/mL	> 4 µg/mL	> 4 µg/mL	–	–	–
